Settings in the first data set: not given
The melting point is the temperature of the solid-liquid transition. `COc1cc(OC)nc(Oc2cccc(Oc3nc(OC)cc(OC)n3)c2C(=O)ON=C(c2ccccc2)c2ccccc2)n1` came in with a melting point of 129 °C.

Turning to `Nc1ccc2ccc3cccc4ccc1c2c34`, the melting point stood at 116 °C.

As for `C=CC(=O)N(C)C`, the ready biodegradability result was “not readily biodegradable”.

For the compound `CC(C)(c1cc(Br)c(OCCO)c(Br)c1)c1cc(Br)c(OCCO)c(Br)c1`, the melting point came to 107 °C and the ready biodegradability entry is given as “not readily biodegradable”.

`CC(=O)Nc1c(I)c(NC(C)=O)c(I)c(C(=O)[O-])c1I.[Na+]` yielded a melting point of 261 °C.

As a reminder, the boiling point is the temperature of boiling at a given pressure. In turn, `CC=CC(=O)CC` had a boiling point of 138 °C.

Regarding `c1ccc2c(c1)-c1cccc3cccc-2c13`, the boiling point worked out at 384 °C, the log10 Henry constant (atm·m³/mol) is -5.05, the log10 Koa was determined as 8.88 and the log10 Koc (L/kg) was 4.8. Also, the log10 biodegradation half-life (days) turned out to be 2.17, the log10 vapour pressure (mmHg) was -5.04 and the ready biodegradability result is “not readily biodegradable”.

`COc1ccc(Nc2ccc(OC)cc2)cc1`: the ready biodegradability result is “not readily biodegradable”.

As for `CCCCC(CCCC)CCCC`, the boiling point stood at 218 °C.

Compound `CCCCC` returned a log10 Henry constant (atm·m³/mol) of 0.0969, a log10 Koa of 1.96, a log10 biodegradation half-life (days) of 0.699 and a log10 vapour pressure (mmHg) of 2.71. For the same compound, the melting point is -130 °C and the ready biodegradability result is “readily biodegradable”.

As to `CC(=O)C(C)C`, the boiling point turned out to be 94.3 °C, the log10 Koa came out at 3.04, the log10 vapour pressure (mmHg) is 1.72 and the melting point is -92 °C. In addition, the ready biodegradability entry is reported as “readily biodegradable”.

In turn, `CC(C)C(C)CCC(C)C1CCC2=C3CCC4CC(O)CCC4(C)C3CCC21C` (stereo not drawn) yielded a melting point of 131 °C.

Regarding `CCCCC1CCC(O)C(OC)C1` (stereo not drawn), the ready biodegradability entry is on record as “readily biodegradable”.

Regarding `Cc1ccc(S(=O)(=O)O)c(C)c1`, the melting point worked out at 57 °C and the ready biodegradability entry is given as “readily biodegradable”.

On to `CCCCCCCCCCc1ccc(O)c(/C=N/O)c1`, for which the ready biodegradability result was “readily biodegradable”.

In the case of `FC(Cl)Cl`, the boiling point is 8.9 °C, the log10 vapour pressure (mmHg) stood at 3.13 and the melting point was -135 °C.

`CC(C)C[Si](Cl)(Cl)Cl` gave a boiling point of 143 °C.

`O=C1OC(=O)c2cccc3cccc1c23` showed a melting point of 270 °C.

For the compound `CC1=C(C)C2CCC1C2`, the boiling point stood at 140 °C.

As to `N#CCCN(CCC#N)c1ccc(N=Nc2c(Cl)cc([N+](=O)[O-])cc2Cl)cc1`, the ready biodegradability result is on record as “not readily biodegradable”.

On to `CCCCCCCCCCCc1ccccc1`, for which the boiling point turned out to be 316 °C, the log10 vapour pressure (mmHg) is -3.62 and the melting point is -5 °C.

With `Clc1cc(Cl)c2cccc(Cl)c2c1Cl`, the log10 Koa amounted to 8.41.

Regarding `ClCCl`, the boiling point is 40 °C, the log10 Henry constant (atm·m³/mol) was -2.49, the log10 Koa amounted to 2.27 and the log10 Koc (L/kg) was determined as 1.44. The log10 vapour pressure (mmHg) was found to be 2.64, the melting point was -95.1 °C and the ready biodegradability entry is reported as “not readily biodegradable”.

For the compound `OCCCl`, the boiling point was determined as 129 °C, the log10 Koa stood at 4.3, the log10 vapour pressure (mmHg) was determined as 0.856 and the melting point is -67.5 °C. The ready biodegradability result is “readily biodegradable”.

`NC(=O)C(N)=O` came in with a log10 vapour pressure (mmHg) of -7.2.

In turn, `CCC(OC(N)=O)C1CCCCC1` (stereo not drawn) gave a melting point of 128 °C.

On to `CC(CN(C)C)CN1c2ccccc2Sc2ccccc21` (stereo not drawn), for which the melting point is 68 °C.

As for `C=CSC=C`, the boiling point was 84 °C and the melting point was determined as 20 °C.

In turn, `CCCCC(CC)C(=O)O` (stereo not drawn) registered a boiling point of 228 °C and a log10 vapour pressure (mmHg) of -1.52.

As to `CN1C(=O)CC[C@H]1c1cccnc1`, the melting point came to 41 °C.

`CCNC(=O)NC(=O)/C(C#N)=N/OC` displayed a log10 Koc (L/kg) of 2.09, a log10 vapour pressure (mmHg) of -5.95 and a melting point of 160 °C.

Compound `Cc1ccccc1N=Nc1c(N)ccc2ccccc12` had a melting point of 126 °C.

The compound `CCCN(CCC)c1c([N+](=O)[O-])cc(C(F)(F)F)cc1[N+](=O)[O-]` came in with a log10 Henry constant (atm·m³/mol) of -3.99, a log10 Koc (L/kg) of 4.2, a log10 vapour pressure (mmHg) of -4.34 and a melting point of 49 °C. For the same compound, the ready biodegradability entry was “not readily biodegradable”.

With `O=[Se](O)c1ccccc1`, the melting point was determined as 124 °C.

As to `CC(C)(O)C(=O)O`, the boiling point is 212 °C, the log10 vapour pressure (mmHg) was -2.06 and the melting point worked out at 82.5 °C.

`CC12CCC(C(Cl)C1=O)C2(C)C` (stereo not drawn) returned a melting point of 106 °C.

As to `Oc1ccccc1Br`, the boiling point is 194 °C, the melting point came out at 5.6 °C and the ready biodegradability entry is given as “not readily biodegradable”.

Turning to `Cc1csc(N)n1`, the melting point is 45.5 °C.

On to `FC(F)(Cl)Br`, for which the boiling point is -3.7 °C, the log10 vapour pressure (mmHg) amounted to 3.31 and the melting point is -160 °C.

Compound `Cc1ccc(C(C)C)c(C)c1` came in with a boiling point of 197 °C and a melting point of -82 °C.

The compound `C[C@@H]1Cc2c(Cl)cc(C(=O)N[C@@H](Cc3ccccc3)C(=O)O)c(O)c2C(=O)O1` came in with a melting point of 169 °C.

In turn, `CC(C)CCC(C)(C)C` yielded a boiling point of 124 °C, a log10 biodegradation half-life (days) of 1.26, a log10 vapour pressure (mmHg) of 1.22 and a melting point of -106 °C.

In turn, `CCCCCCCCCCCCCCCC(=O)OC` returned a log10 vapour pressure (mmHg) of -4.33 and a melting point of 30 °C.

Compound `Nc1ccc(C=CC(=O)O)cc1` yielded a boiling point of 285 °C and a melting point of 122 °C.

`CC1=CC[C@@H]2C[C@@H](C[C@]3(CC[C@H](C)[C@@H](C)O3)O2)OC(=O)[C@@H]2C=C(C)[C@@H](O)[C@H]3OCC(=CC=C[C@H](C)C1)[C@]32O` had a melting point of 214 °C.

Turning to `CCCCCCCCCCCC(=O)CCCCCCCCCCC`, the melting point was 70.2 °C.

Take `CC(C)C=O`: the boiling point was determined as 64.5 °C, the log10 vapour pressure (mmHg) was 2.24, the melting point is -65.9 °C and the ready biodegradability result is listed as “readily biodegradable”.

In the case of `O[C@H]1[C@H](O)[C@@H](O)[C@H](O)[C@@H](O)[C@H]1O` (racemic), the melting point came to 237 °C.

The compound `CC(=O)Oc1cccc2ccccc12` returned a melting point of 44.5 °C.

For the compound `O=C(O)c1ccccc1OP(=O)(O)O`, the melting point was 169 °C.

As to `Cc1cc(C(C)C)ccc1O`, the boiling point amounted to 230 °C and the melting point was determined as 8.6 °C.

Consider `CC(C)(C)NCCO`, for which the boiling point was determined as 176 °C, the melting point came to 44 °C and the ready biodegradability entry is “not readily biodegradable”.

Turning to `O=C(OC(=O)C(c1ccccc1)c1ccccc1)C(c1ccccc1)c1ccccc1`, the melting point was 98 °C.

In turn, `CC(C)(C(=O)O)n1nnc2ccccc21` yielded a melting point of 182 °C.

In the case of `FC(F)(F)C(F)(F)C(F)(F)C(F)(F)C(F)(F)C(F)(F)C(F)(F)Cl`, the boiling point turned out to be 108 °C.

`CC(C)CC1Nc2cc(Cl)c(S(N)(=O)=O)cc2S(=O)(=O)N1` (stereo not drawn) came in with a melting point of 222 °C.

In turn, `O=[N+]([O-])c1ccc(O)cc1O` returned a melting point of 122 °C.

Consider `Clc1ccc(Cn2c(CN3CCCC3)nc3ccccc32)cc1`, for which the melting point was determined as 167 °C.

`COc1cccc(Br)c1` came in with a boiling point of 211 °C.

Consider `O=[N+]([O-])c1cccc(S(=O)(=O)O)c1`, for which the ready biodegradability entry was “not readily biodegradable”.

`CCC1CCCS1` (stereo not drawn): the boiling point was 157 °C.

In the case of `CC(C)CCCCCCOC(=O)c1ccccc1C(=O)OCCCCCCC(C)C`, the ready biodegradability entry was “readily biodegradable”.

Take `Nc1nc2nn[nH]c2c(=O)[nH]1`: the melting point amounted to 300 °C.

In the case of `CCN(C)c1ccccc1`, the boiling point was 204 °C.

With `CC(C)OC(=O)OOC(C)(C)C`, the ready biodegradability entry is listed as “not readily biodegradable”.

Take `Cc1c(C(C)OC(=O)CCC(=O)O)oc2ccc(C3=CC(=O)OC3)cc12` (stereo not drawn): the melting point was determined as 144 °C.

Compound `O=C1c2ccccc2C(=O)N1c1ccccc1` displayed a melting point of 210 °C.

As to `NC(=O)c1ccc(Cl)cc1`, the melting point turned out to be 174 °C.

Turning to `CN(CCCC(=O)c1cccnc1)N=O`, the melting point came out at 64 °C.

In turn, `CC(C)C(O)(c1ccc(OC(F)(F)F)cc1)c1cncnc1` (stereo not drawn) yielded a boiling point of 264 °C, a log10 vapour pressure (mmHg) of -6.44 and a melting point of 95 °C.

Take `O=C(O)c1cc([N+](=O)[O-])ccc1O`: the melting point turned out to be 230 °C.

Still in this data set, the particulars now being: fish.
The compound `c1ccc2c(c1)-c1cccc3cccc-2c13` came in with a log10 BCF of 3.56 and a log10 biotransformation half-life (days) of -0.02.

Regarding `ClCCl`, the log10 BCF turned out to be 1.36 and the log10 biotransformation half-life (days) is -0.51.

Regarding `CCCN(CCC)c1c([N+](=O)[O-])cc(C(F)(F)F)cc1[N+](=O)[O-]`, the log10 BCF was determined as 3.36 and the log10 biotransformation half-life (days) is 0.62.

Compound `Oc1ccccc1Br` showed a log10 BCF of 1.52 and a log10 biotransformation half-life (days) of -0.24.
